What all share (assay): 5-day MTT cytotoxicity assay
In assay [1] the test system is human breast adenocarcinoma MCF-7. It counts as cell-based. Particulars: MCF-7, 5-day MTT assay, read-out: IC50. As to the method: (§1) Cytotoxicity of compounds 1‒5 was initially determined against two cancer cell lines (mouse fibroblasts L-929 and human endocervical adenocarcinoma KB-3.1) by using a 5-day MTT assay according to an established procedure.
(§2) In 96-well flat-bottom microtiter plates, cell lines with serial dilution of the test compounds (final range: 37 to 0.6 × 10^−3 µg/mL) were incubated for five days. After five days, the cells were dyed using 3-(4,5-dimethyl-2-thiazolyl)-2,5-diphenyl-2H-tetrazolium bromide (MTT), which is only converted to its purple formazan derivative by living cells. The half-maximum inhibitory concentration (IC50 in µM) was calculated via the colorimetric method in a microplate reader using absorption at 595 nm. In addition, when an inhibition with an IC50 < 50 µM was observed, other cell lines were subjected to the test compounds to evaluate their further cytotoxicity: PC-3 (human prostate adenocarcinoma), SK-OV-3 (human ovary adenocarcinoma), MCF-7 (human breast adenocarcinoma), A-431 (human squamous carcinoma), and A549 (human lung carcinoma). A detailed procedure, including the colorimetric method to determine the cell viability, can be found in the SI.
(§3) Protocol: Cytotoxicity Assay
(§4) The assay was co nducted in 9 6-well flat -botto m microtiter plates using the parameters summarised in T able S2 and as described in [S2]. Cell l ines L-929 and KB-3.1 were incubated at 37 °C under 10 % CO2 in Gibco™ DMEM medium (T her mo Fisher Scientific, Waltham, M A, USA) supplemented with 10 % FBS. A microtiter plate was filled wit h 120 μ L o f this suspensio n (50,000/mL) in each well. Seperatel y, a nother microti ter plate wa s filled wit h 100 μL of gro wth medium in each well. Then, 50 μ L of the test compound solutions (1 mg/mL) were given to wells of the first column in two replicates (one compound per row). Cells without additives and MeOH were used as nega tive controls. Starting from the first column, 50 μ L of the solutions were gradually transferred to the next column, the contents thoroughly mixed, and 50 μL transferred to the following column. This created a serial dilution of the test compounds ranging from 333 μ g/mL to 1.9×10-3 μg/ mL. T he re mai ni ng 50 μ L after column twelve were discarded. From this microtiter plate, 60 μ L of the solutions fro m 111 μ g/mL to 1.9×10-3 μg/mL we r e give n to t he firs t p late co ntai ni ng 1 2 0 μ L of the cell suspensions (i.e. the highest co ncentration 333 μ g/ mL wa s no t used). T his resul ted in fi nal compo und concentratio ns rangi ng fro m 37 μ g/mL to 0.6×10-3 μg/ mL. After 5 days o f incubatio n under the aforementioned incubatio n conditions, the half maximu m inhibitory co ncentrations (IC50) were deter mined using a colorimetric tetrazolium d ye MT T assa y [S3]. For this, 20 μ L of a 5 mg/mL solution of 3-(4,5-dimethyl-2 -thiazolyl) -2,5-diphenyl-2H-tetrazolium br omide (MTT) were added to each well and incubated for two hours at 37 °C. T hen, the microtiter plate was ce ntrifuged (3,000 rpm, 5 min) and the supernatant removed by holding the plate upside-down and gentle shaking. Afterwards, the wells were washed using 100 μ L of phosphate buffered saline (PBS). T he plate was a gain ce ntrifuged a nd the supernata nt re mo ved as described before.
(§5) T hen, 1 0 0 μ L of an isopropanol:HCl solution (1L isopropanol+4 mL HCl 37 % w/v) were added to the wells. After incubating for 10 min at ambient temperature, the absorption of the wells at 595 nm was measured with an Infinite® 200 Pro microplate reader (TECAN, Männedorf, Schweiz). The absorption values of the cells without additives were averaged and set to 100 % cell viability. Then, the means of absorption of the two compound replicates were set in relation to the blank media. T hese percentage values were plotted against the concentratio n range (37 μ g/mL to 0.6×10−3 μg/ mL). T he IC50 value was r ead fro m the plot (in μ g/ mL) a nd the uni ts conversed […]
to μM. […]
(In general: Tetrazolium dyes change colour on reduction, which living cells bring about.)

Assay [2] has as its system human lung carcinoma A-549. It counts as cell-based. The following applies: A549, 120 h, A-549, 5-day MTT assay, read-out: IC50. As to the method:
as §1, §2, §3, §4, §5
to μM. […]

The subject of assay [3] is human prostate cancer PC-3. The assay is classed as cell-based. The following applies: 120 h, PC-3, 5-day MTT assay, read-out: IC50. As to the method:
as §1, §2, §3, §4, §5
to μM. […]

Assay [4] has as its system ovarian carcinoma SK-OV-3. It counts as cell-based, human. The following applies: SK-OV-3, 5-day MTT assay, read-out: IC50. As to the method: as §1, §2, §3, §4, §5
to μM. […]

The subject of assay [5] is squamous cell carcinoma A-431. It counts as cell-based, human. Particulars: A-431, 5-day MTT assay, read-out: IC50. Here is the method:
as §1, §2, §3, §4, §5
to μM. […]

Each structure is given as a SMILES string. Where two headings read alike, the source gives them in different places.

The IC50 is the concentration that inhibits the measured activity by half. In the case of `CCC(C(=O)O)C1C(C)=CC2CC(C)CCC2C1(C)C(O)=C1C(=O)C(C)N(C)C1=O` (centres unmarked) [compound 2, Colposetin B], the IC50 in assay [1] (Homo sapiens, MCF7, 120 h) was 6.2 to 8.1 µM; in assay [1] it was 7.9 µM; in assay [2], 16.5 µM; in assay [3], 17.9 µM; in assay [4] (Homo sapiens, SK-OV-3, 120 h) it was 6.2 to 8.1 µM; in assay [4], 8.1 µM. For the same compound, the IC50 in assay [5] was 6.2 µM; in assay [5] (Homo sapiens, A-431, 120 h), 6.2 to 8.1 µM.

Values taken from article PMC8224775, “Five Tetramic Acid Derivatives Isolated from the Iranian Fungus Colpoma quercinum CCTU A372” (Biomolecules, 2021).
